Test results: the NIST ThermoML archive (doi:10.1021/je300775u)
± gives the expanded uncertainty stated by the source.

Assay: xn = mol fraction of the nth substance listed
Settings: 101 kPa, Liquid; for speed of sound: Pulse-echo method; for mass density: Vibrating tube method

ClCBr [bromochloromethane] + ClC(Cl)(Cl)Br
Settings | mass density, 293.15 K [kg/m3] | mass density, 298.15 K [kg/m3] | mass density, 303.15 K [kg/m3] | mass density, 308.15 K [kg/m3] | mass density, 313.15 K [kg/m3] | speed of sound, 293.15 K [m/s] | speed of sound, 298.15 K [m/s] | speed of sound, 303.15 K [m/s] | speed of sound, 308.15 K [m/s] | speed of sound, 313.15 K [m/s]
x2 = 0 | 1933.23 ± 1.1 | 1921.71 ± 1.1 | 1910.15 ± 1.1 | 1898.51 ± 1.1 | 1886.82 ± 1.1 | 1001.2 ± 1.2 | 986.1 ± 1.2 | 971 ± 1.2 | 955.9 ± 1.2 | 940.8 ± 1.2
x2 = 0.052 | 1938.2 ± 1.1 | 1926.72 ± 1.1 | 1915.19 ± 1.1 | 1903.6 ± 1.1 | 1891.94 ± 1.1 | 992.8 ± 1.2 | 977.9 ± 1.2 | 962.9 ± 1.2 | 947.9 ± 1.2 | 933 ± 1.2
x2 = 0.103 | 1942.79 ± 1.1 | 1931.34 ± 1.1 | 1919.85 ± 1.1 | 1908.3 ± 1.1 | 1896.67 ± 1.1 | 985.2 ± 1.2 | 970.4 ± 1.2 | 955.5 ± 1.2 | 940.7 ± 1.2 | 925.9 ± 1.2
x2 = 0.1538 | 1947.34 ± 1.1 | 1935.88 ± 1.1 | 1924.46 ± 1.1 | 1912.93 ± 1.1 | 1901.44 ± 1.1 | 978.4 ± 1.2 | 963.6 ± 1.2 | 948.9 ± 1.2 | 934.2 ± 1.2 | 919.1 ± 1.2
x2 = 0.2031 | 1951.55 ± 1.2 | 1940.16 ± 1.1 | 1928.76 ± 1.1 | 1917.27 ± 1.1 | 1905.74 ± 1.1 | 972.2 ± 1.2 | 957.5 ± 1.2 | 942.8 ± 1.2 | 928.1 ± 1.2 | 913.6 ± 1.2
x2 = 0.2551 | 1956.05 ± 1.2 | 1944.71 ± 1.1 | 1933.31 ± 1.1 | 1921.86 ± 1.1 | 1910.36 ± 1.1 | 966.1 ± 1.2 | 951.6 ± 1.2 | 937 ± 1.2 | 922.6 ± 1.2 | 908.1 ± 1.2
x2 = 0.305 | 1960.19 ± 1.2 | 1948.82 ± 1.1 | 1937.49 ± 1.1 | 1926.18 ± 1.1 | 1914.72 ± 1.1 | 960.7 ± 1.2 | 946.3 ± 1.2 | 931.8 ± 1.2 | 917.3 ± 1.2 | 903 ± 1.2
x2 = 0.3522 | 1963.98 ± 1.2 | 1952.66 ± 1.2 | 1941.28 ± 1.1 | 1929.99 ± 1.1 | 1918.58 ± 1.1 | 956.4 ± 1.2 | 942.1 ± 1.2 | 927.8 ± 1.2 | 913.5 ± 1.2 | 898.9 ± 1.2
x2 = 0.4063 | 1968.54 ± 1.2 | 1957.3 ± 1.2 | 1946.02 ± 1.1 | 1934.68 ± 1.1 | 1923.3 ± 1.1 | 950.8 ± 1.2 | 936.7 ± 1.2 | 922.4 ± 1.2 | 908.2 ± 1.2 | 894 ± 1.2
x2 = 0.4553 | 1972.41 ± 1.2 | 1961.2 ± 1.2 | 1949.96 ± 1.1 | 1938.65 ± 1.1 | 1927.29 ± 1.1 | 946.7 ± 1.2 | 932.6 ± 1.2 | 918.4 ± 1.2 | 904.2 ± 1.2 | 890.3 ± 1.2
x2 = 0.5058 | 1976.4 ± 1.2 | 1965.21 ± 1.2 | 1954 ± 1.2 | 1942.75 ± 1.1 | 1931.42 ± 1.1 | 942.7 ± 1.2 | 928.6 ± 1.2 | 914.5 ± 1.2 | 900.5 ± 1.2 | 886.5 ± 1.2
x2 = 0.5665 | 1981.04 ± 1.2 | 1969.89 ± 1.2 | 1958.74 ± 1.2 | 1947.52 ± 1.1 | 1936.26 ± 1.1 | 938.2 ± 1.2 | 924.2 ± 1.2 | 910.3 ± 1.2 | 896.4 ± 1.2 | 882.6 ± 1.2
x2 = 0.6027 | 1983.79 ± 1.2 | 1972.67 ± 1.2 | 1961.52 ± 1.2 | 1950.31 ± 1.1 | 1939.1 ± 1.1 | 935.8 ± 1.2 | 921.9 ± 1.2 | 908 ± 1.2 | 894.1 ± 1.2 | 880.3 ± 1.2
x2 = 0.6567 | 1987.81 ± 1.2 | 1976.74 ± 1.2 | 1965.63 ± 1.2 | 1954.45 ± 1.2 | 1943.26 ± 1.1 | 932.3 ± 1.2 | 918.5 ± 1.2 | 904.7 ± 1.2 | 891 ± 1.2 | 877.2 ± 1.2
x2 = 0.7046 | 1991.31 ± 1.2 | 1980.21 ± 1.2 | 1969.15 ± 1.2 | 1958.12 ± 1.2 | 1946.95 ± 1.1 | 929.6 ± 1.2 | 915.8 ± 1.2 | 902 ± 1.2 | 888.3 ± 1.2 | 874.7 ± 1.2
x2 = 0.7543 | 1994.91 ± 1.2 | 1983.88 ± 1.2 | 1972.83 ± 1.2 | 1961.75 ± 1.2 | 1950.61 ± 1.1 | 926.9 ± 1.2 | 913.2 ± 1.2 | 899.5 ± 1.2 | 885.9 ± 1.2 | 872.3 ± 1.2
x2 = 0.8025 | 1998.2 ± 1.2 | 1987.2 ± 1.2 | 1976.2 ± 1.2 | 1965.14 ± 1.2 | 1954.05 ± 1.2 | 924.5 ± 1.2 | 910.8 ± 1.2 | 897.2 ± 1.2 | 883.7 ± 1.2 | 870.2 ± 1.2
x2 = 0.8516 | 2001.94 ± 1.2 | 1990.96 ± 1.2 | 1979.93 ± 1.2 | 1968.92 ± 1.2 | 1957.85 ± 1.2 | 922.3 ± 1.2 | 908.7 ± 1.2 | 895.1 ± 1.2 | 881.6 ± 1.2 | 868.3 ± 1.2
x2 = 0.8996 | 2005.35 ± 1.2 | 1994.38 ± 1.2 | 1983.39 ± 1.2 | 1972.42 ± 1.2 | 1961.38 ± 1.2 | 920.3 ± 1.2 | 906.8 ± 1.2 | 893.3 ± 1.2 | 879.9 ± 1.2 | 866.5 ± 1.2
x2 = 0.9228 | 2007.14 ± 1.2 | 1996.17 ± 1.2 | 1985.15 ± 1.2 | 1974.22 ± 1.2 | 1963.19 ± 1.2 | 919.8 ± 1.2 | 906.3 ± 1.2 | 892.9 ± 1.2 | 879.4 ± 1.2 | 865.9 ± 1.2
